Legend:
cytochrome C = cytochrome C concentration, SimpleStep ELISA; type: cell-based, human; conditions: 5 µM, 24 h, MCF-7
Description: To determine the effects of the new 4-thiazolidinone derivatives and the reference drug on the concentration of p53 and cytochrome C in MCF-7 cell lysates or supernatants after 24 h of treatment, highly sensitive SimpleStep ELISA (enzyme-linked immunosorbent assay) kits (Abcam, Cambridge, UK) were applied. The cells were collected and washed thrice with cold PBS and centrifuged at 1000× g for 5 min at 4 °C. Next, the cells were suspended in lysis buffer to acquire cell lysates. Concurrently, the supernatants, acquired after centrifugation, were frozen immediately at −80 °C. The standards, samples, and antibody cocktail were added to the appropriate microtiter plate wells, followed by 1 h incubation at room temperature. The content of microplate wells was extracted, and the wells were washed thrice. Afterwards, a TMB development solution was added to each well. The enzyme–substrate reaction was terminated with a stop solution. The change in color was assessed by UV-VIS Helios Gamma (Unicam/ThermoFisher Scientific Inc., Cleveland, OH, USA) at 450 ± 2 nm wavelength.
Both p53 and cytochrome C proteins play pivotal roles in the process of apoptosis. For this reason, concentrations of the mentioned proteins were measured in MCF-7 cells after 24 h treatment with the tested compounds (Les-6416, Les-6418, Les-6381, Les-6423, Les-6424) in concentrations of 5 µM.

CNS Cancer = type: cell-based
Leukemia = type: cell-based
EKVX = type: cell-based
U251 = type: cell-based
HOP-92 = type: cell-based
RXF 393 = type: cell-based
HCT-116 = type: cell-based
HOP-62 = type: cell-based
A498 = type: cell-based
TK-10 = type: cell-based
[1] = tested on: Non-small Cell Lung Cancer; type: cell-based
NCI-H23 = type: cell-based
K-562 = type: cell-based
UACC-257 = type: cell-based
Colon Cancer = type: cell-based
SR = type: cell-based
COLO 205 = type: cell-based
Renal Cancer = type: cell-based
HCT-15 = type: cell-based
MALME -3M = type: cell-based
MOLT-4 = type: cell-based
[2] = Homo sapiens, 48 h, read-out: LC50 (the source's name)

COc1cc(NC2=NC(=O)C(=Cc3ccc4cc[nH]c4c3)S2)cc(OC)c1OC [Les-6416, 5-((1H-Indol-6-yl)methylene)-2-((3,4,5-trimethoxyphenyl)amino)thiazol-4(5H)-one] was tested, and the “Concentration of cytochrome c” value (cytochrome C) was 4.56 ± 0.85 ng/mL.

In the case of COc1cc(NC2=NC(=O)C(=Cc3c[nH]c4ccccc34)S2)cc(OC)c1OC [Les-6418, 5-((1H-Indol-3-yl)methylene)-2-((3,4,5-trimethoxyphenyl)amino)thiazol-4(5H)-one], the “MG_MID TGI” value (CNS Cancer; CNS Cancer subpanel mean) is reported as 14.0 µM, the “SI (MG_MID TGI)” value (CNS Cancer; CNS Cancer subpanel, MG_MID_60/value) is reported as 1.33 and the GI50 (CNS Cancer; Homo sapiens, CNS Cancer subpanel mean, read-out: MG_MID GI50) is reported as 3.24 µM. The CC50 (CNS Cancer; Homo sapiens, CNS Cancer subpanel mean, read-out: MG_MID LC50) was 46.1 µM, the GI50 (Leukemia; Homo sapiens, Leukemia subpanel mean, read-out: MG_MID GI50) was 2040 nM and the CC50 (Leukemia; Homo sapiens, Leukemia subpanel mean, read-out: MG_MID LC50) was over 100 µM. For the same compound, the “MG_MID TGI” value (Leukemia; Leukemia subpanel mean) was 49.7 µM, the “SI (MG_MID TGI)” value (Leukemia; Leukemia subpanel, MG_MID_60/value) was 0.37 and the TGI (EKVX; 48 h) was 22.2 µM. The GI50 (EKVX; Homo sapiens, 48 h) was 8.02 µM, the LC50 (EKVX; Homo sapiens, 48 h) was 53.2 µM and the “SI (TGI)” value (EKVX; MG_MID_60/value) was 0.84. The GI50 (U251; Homo sapiens, U-251, U251, 48 h) was 3.27 µM, the CC50 (U251; Homo sapiens, U-251, U251, 48 h, read-out: LC50 (the source's name)) was 54.7 µM and the TGI (U251; U251, 48 h) was 15.7 µM. For the same compound, the “SI (TGI)” value (U251; U251, MG_MID_60/value) was 1.18, the Growth % (U251; U-251, 10 μM, one dose, 48 h) was −79.79% and the Growth % (HOP-92; HOP-92, 10 μM, one dose, 48 h) was −72.26%. The TGI (HOP-92; HOP-92, 48 h) was 6.38 µM, the “SI (TGI)” value (HOP-92; HOP-92, MG_MID_60/value) was 2.92 and the GI50 (HOP-92; Homo sapiens, HOP-92, 48 h) was 1980 nM. The CC50 (HOP-92; Homo sapiens, HOP-92, 48 h, read-out: LC50 (the source's name)) was 42 µM, the GI50 (RXF 393; Homo sapiens, RXF 393, 48 h) was 1000 nM and the CC50 (RXF 393; Homo sapiens, RXF 393, 48 h, read-out: LC50 (the source's name)) was 34 µM. For the same compound, the TGI (RXF 393; RXF 393, 48 h) was 5.80 µM, the “SI (TGI)” value (RXF 393; RXF 393, MG_MID_60/value) was 3.21 and the TGI (HCT-116; HCT-116, 48 h) was 10.2 µM. For the same compound, the “SI (TGI)” value (HCT-116; HCT-116, MG_MID_60/value) was 1.82, the GI50 (HCT-116; Homo sapiens, HCT-116, 48 h) was 1100 nM and the CC50 (HCT-116; Homo sapiens, HCT-116, 48 h, read-out: LC50 (the source's name)) was 50.6 µM. The TGI (HOP-62; HOP-62, 48 h) was 15.7 µM, the “SI (TGI)” value (HOP-62; HOP-62, MG_MID_60/value) was 1.18 and the GI50 (HOP-62; Homo sapiens, HOP-62, 48 h) was 2690 nM. For the same compound, the LC50 (HOP-62; Homo sapiens, HOP-62, 48 h) was 65.9 µM, the Growth % (A498; A498, 10 μM, one dose, 48 h) was −76.12% and the TGI (A498; A498, 48 h) was 24.6 µM. For the same compound, the “SI (TGI)” value (A498; A498, MG_MID_60/value) was 0.76, the GI50 (A498; Homo sapiens, A498, 48 h) was 10.2 µM and the CC50 (A498; Homo sapiens, A498, 48 h, read-out: LC50 (the source's name)) was 59.6 µM. For the same compound, the GI50 (TK-10; Homo sapiens, TK-10, 48 h) was 8.56 µM, the CC50 (TK-10; Homo sapiens, TK-10, 48 h, read-out: LC50 (the source's name)) was 55.6 µM and the TGI (TK-10; TK-10, 48 h) was 22.8 µM. For the same compound, the “SI (TGI)” value (TK-10; TK-10, MG_MID_60/value) was 0.82, the GI50 ([1]; Homo sapiens, Non-small Cell Lung Cancer subpanel mean, read-out: MG_MID GI50) was 3.66 µM and the CC50 ([1]; Homo sapiens, Non-small Cell Lung Cancer subpanel mean, read-out: MG_MID LC50) was 61.1 µM. The “MG_MID TGI” value ([1]; Non-small Cell Lung Cancer subpanel mean) was 15.6 µM, the “SI (MG_MID TGI)” value ([1]; Non-small Cell Lung Cancer subpanel, MG_MID_60/value) was 1.19 and the GI50 (NCI-H23; Homo sapiens, NCI-H23, 48 h) was 5.33 µM. For the same compound, the CC50 (NCI-H23; Homo sapiens, NCI-H23, 48 h, read-out: LC50 (the source's name)) was 54 µM, the TGI (NCI-H23; NCI-H23, 48 h) was 21.1 µM and the “SI (TGI)” value (NCI-H23; NCI-H23, MG_MID_60/value) was 0.88. It also gave a GI50 (K-562; Homo sapiens, K562, K-562, 48 h) of 526 nM, a CC50 (K-562; Homo sapiens, K562, K-562, 48 h, read-out: LC50 (the source's name)) of over 100 µM and a TGI (K-562; K-562, 48 h) of 31.1 µM. For the same compound, the “SI (TGI)” value (K-562; K-562, MG_MID_60/value) was 0.60, the GI50 (UACC-257; Homo sapiens, UACC-257, 48 h) was 5.18 µM and the CC50 (UACC-257; Homo sapiens, UACC-257, 48 h, read-out: LC50 (the source's name)) was 52.7 µM. The TGI (UACC-257; UACC-257, 48 h) was 21.1 µM, the “SI (TGI)” value (UACC-257; UACC-257, MG_MID_60/value) was 0.88 and the “MG_MID TGI” value (Colon Cancer; Colon Cancer subpanel mean) was 15.5 µM. For the same compound, the “SI (MG_MID TGI)” value (Colon Cancer; Colon Cancer subpanel, MG_MID_60/value) was 1.20, the GI50 (Colon Cancer; Homo sapiens, Colon Cancer subpanel mean, read-out: MG_MID GI50) was 2480 nM and the CC50 (Colon Cancer; Homo sapiens, Colon Cancer subpanel mean, read-out: MG_MID LC50) was 55.6 µM. The TGI (SR; 48 h) was 29.9 µM, the GI50 (SR; Homo sapiens, 48 h) was 394 nM and the CC50 (SR; [2]) was over 100 µM. The “SI (TGI)” value (SR; MG_MID_60/value) was 0.62, the TGI (COLO 205; COLO 205, 48 h) was 16.4 µM and the “SI (TGI)” value (COLO 205; COLO 205, MG_MID_60/value) was 1.13. The GI50 (COLO 205; Homo sapiens, COLO 205, 48 h) was 3.14 µM, the CC50 (COLO 205; Homo sapiens, COLO 205, 48 h, read-out: LC50 (the source's name)) was 49.6 µM and the GI50 (Renal Cancer; Homo sapiens, Renal Cancer subpanel mean, read-out: MG_MID GI50) was 4.22 µM. For the same compound, the CC50 (Renal Cancer; Homo sapiens, Renal Cancer subpanel mean, read-out: MG_MID LC50) was 44.6 µM, the “MG_MID TGI” value (Renal Cancer; Renal Cancer subpanel mean) was 14.5 µM and the “SI (MG_MID TGI)” value (Renal Cancer; Renal Cancer subpanel, MG_MID_60/value) was 1.28. For the same compound, the TGI (HCT-15; HCT-15, 48 h) was 12.4 µM, the “SI (TGI)” value (HCT-15; HCT-15, MG_MID_60/value) was 1.50 and the GI50 (HCT-15; Homo sapiens, HCT-15, 48 h) was 1790 nM. For the same compound, the CC50 (HCT-15; Homo sapiens, HCT-15, 48 h, read-out: LC50 (the source's name)) was 37.7 µM, the TGI (MALME -3M; 48 h) was 15.2 µM and the GI50 (MALME -3M; Homo sapiens, 48 h) was 2010 nM. For the same compound, the CC50 (MALME -3M; [2]) was 43.9 µM, the “SI (TGI)” value (MALME -3M; MG_MID_60/value) was 1.22 and the GI50 (MOLT-4; Homo sapiens, MOLT-4, 48 h) was 2630 nM. The CC50 (MOLT-4; Homo sapiens, MOLT-4, 48 h, read-out: LC50 (the source's name)) was over 100 µM, the TGI (MOLT-4; MOLT-4, 48 h) was 26.0 µM and the “SI (GI50)” value (MOLT-4; MOLT-4, MG_MID_60/value) was 1.24. For the same compound, the “SI (TGI)” value (MOLT-4; MOLT-4, MG_MID_60/value) was 0.72.

Reference: publication PMC12190436, “5-Ene-2-arylaminothiazol-4(5H)-ones Induce Apoptosis in Breast Cancer Cells” (Cells, 2025)
